{"source": "PubChem BioAssay AID1963844", "about": "(Molecular Pharmacology Branch, DTP, NCI, 2024);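 further: spheroids exposed to compounds for one week before readout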;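 on viability, T/C: percent of DMSO vehicle wells luminescence so 100% = untreated viability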", "tested_on": "422866-222-R5-J1-PDC complex spheroid viability", "assay": "Anticancer human tumor 422866-222-R5-J1-PDC patient-derived pancreatic adenocarcinoma cell line growth inhibition [POLQ]", "conditions": "for IC50: curve of first compound; for viability, T/C: stronger effect = lower value", "procedure,_shortened": "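Growth inhibition in 3D: complex spheroids (tumor PDC, HUVEC, MSC) treated with POLQ inhibitor combinations; where Cmax unknown, highest tested concentration 10 microM, except SN-38 at 1 microM.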", "data": [{"smiles": "COc1cc(C2c3cc4c(cc3C(OC3OC5COC(C)OC5C(O)C3O)C3COC(=O)C23)OCO4)cc(OC)c1O", "note": "(configuration not stated) + COC1C(OC(N)=O)C(O)C(Oc2ccc3c(O)c(NC(=O)c4ccc(O)c(CC=C(C)C)c4)c(=O)oc3c2C)OC1(C)C", "values": [{"measurement": "IC50", "setting": "second compound 0.0316 µM", "value": 1330, "unit": "nM"}, {"measurement": "IC50", "setting": "second compound 0.1 µM", "value": 966, "unit": "nM"}, {"measurement": "IC50", "setting": "second compound 0.316 µM", "value": 770, "unit": "nM"}, {"measurement": "IC50", "setting": "second compound 1 µM", "value": 1070, "unit": "nM"}, {"measurement": "IC50", "setting": "second compound 3.16 µM", "value": 854, "unit": "nM"}, {"measurement": "IC50", "setting": "second compound 10 µM", "value": 715, "unit": "nM"}, {"measurement": "viability, T/C", "setting": "second compound 0.0316 µM, first compound 0.0316 µM", "value": 97.7, "unit": "%"}, {"measurement": "viability, T/C", "setting": "second compound 0.0316 µM, first compound 0.1 µM", "value": 95, "unit": "%"}, {"measurement": "viability, T/C", "setting": "second compound 0.0316 µM, first compound 0.316 µM", "value": 72.5, "unit": "%"}, {"measurement": "viability, T/C", "setting": "second compound 0.0316 µM, first compound 1 µM", "value": 51.3, "unit": "%"}, {"measurement": "viability, T/C", "setting": "second compound 0.0316 µM, first compound 3.16 µM", "value": 45.4, "unit": "%"}, {"measurement": "viability, T/C", "setting": "second compound 0.0316 µM, first compound 10 µM", "value": 31.5, "unit": "%"}, {"measurement": "viability, T/C", "setting": "second compound 0.1 µM, first compound 0.0316 µM", "value": 103, "unit": "%"}, {"measurement": "viability, T/C", "setting": "second compound 0.1 µM, first compound 0.1 µM", "value": 94.7, "unit": "%"}, {"measurement": "viability, T/C", "setting": "second compound 0.1 µM, first compound 0.316 µM", "value": 73.5, "unit": "%"}, {"measurement": "viability, T/C", "setting": "second compound 0.1 µM, first compound 1 µM", "value": 49.3, "unit": "%"}, {"measurement": "viability, T/C", "setting": "second compound 0.1 µM, first compound 3.16 µM", "value": 38.2, "unit": "%"}, {"measurement": "viability, T/C", "setting": "second compound 0.1 µM, first compound 10 µM", "value": 36.4, "unit": "%"}, {"measurement": "viability, T/C", "setting": "second compound 0.316 µM, first compound 0.0316 µM", "value": 101, "unit": "%"}, {"measurement": "viability, T/C", "setting": "second compound 0.316 µM, first compound 0.1 µM", "value": 98.6, "unit": "%"}, {"measurement": "viability, T/C", "setting": "second compound 0.316 µM, first compound 0.316 µM", "value": 61.8, "unit": "%"}, {"measurement": "viability, T/C", "setting": "second compound 0.316 µM, first compound 1 µM", "value": 51.4, "unit": "%"}, {"measurement": "viability, T/C", "setting": "second compound 0.316 µM, first compound 3.16 µM", "value": 35.7, "unit": "%"}, {"measurement": "viability, T/C", "setting": "second compound 0.316 µM, first compound 10 µM", "value": 34.9, "unit": "%"}, {"measurement": "viability, T/C", "setting": "second compound 1 µM, first compound 0.0316 µM", "value": 109, "unit": "%"}, {"measurement": "viability, T/C", "setting": "second compound 1 µM, first compound 0.1 µM", "value": 93.2, "unit": "%"}, {"measurement": "viability, T/C", "setting": "second compound 1 µM, first compound 0.316 µM", "value": 85.5, "unit": "%"}, {"measurement": "viability, T/C", "setting": "second compound 1 µM, first compound 1 µM", "value": 48.3, "unit": "%"}, {"measurement": "viability, T/C", "setting": "second compound 1 µM, first compound 3.16 µM", "value": 38, "unit": "%"}, {"measurement": "viability, T/C", "setting": "second compound 1 µM, first compound 10 µM", "value": 32.7, "unit": "%"}, {"measurement": "viability, T/C", "setting": "second compound 3.16 µM, first compound 0.0316 µM", "value": 87.2, "unit": "%"}, {"measurement": "viability, T/C", "setting": "second compound 3.16 µM, first compound 0.1 µM", "value": 88.3, "unit": "%"}, {"measurement": "viability, T/C", "setting": "second compound 3.16 µM, first compound 0.316 µM", "value": 82.4, "unit": "%"}, {"measurement": "viability, T/C", "setting": "second compound 3.16 µM, first compound 1 µM", "value": 44.8, "unit": "%"}, {"measurement": "viability, T/C", "setting": "second compound 3.16 µM, first compound 3.16 µM", "value": 39.4, "unit": "%"}, {"measurement": "viability, T/C", "setting": "second compound 3.16 µM, first compound 10 µM", "value": 35.5, "unit": "%"}, {"measurement": "viability, T/C", "setting": "second compound 10 µM, first compound 0.0316 µM", "value": 96.1, "unit": "%"}, {"measurement": "viability, T/C", "setting": "second compound 10 µM, first compound 0.1 µM", "value": 101, "unit": "%"}, {"measurement": "viability, T/C", "setting": "second compound 10 µM, first compound 0.316 µM", "value": 64.4, "unit": "%"}, {"measurement": "viability, T/C", "setting": "second compound 10 µM, first compound 1 µM", "value": 51, "unit": "%"}, {"measurement": "viability, T/C", "setting": "second compound 10 µM, first compound 3.16 µM", "value": 41.3, "unit": "%"}, {"measurement": "viability, T/C", "setting": "second compound 10 µM, first compound 10 µM", "value": 36.7, "unit": "%"}]}]}
